Test results published in patent publication US12264156B2, “Compounds and pharmaceutical compositions thereof for the treatment of diseases” (GALAPAGOS NV, priority 2018, dated 2025).
pIC50: −log10 of the molar value.

What was measured:
[1] = biological target: T1, SIK2 (Homo sapiens, UniProt Q9H0K1); assay: ADP-Glo kinase assay, SIK2; assay type: biochemical; details: ADP-Glo SIK kinase assay
T1 construct: purchased ThermoFisher Scientific PV4792
Procedure, shortened: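 Enzyme–substrate mix was started with ATP and incubated 120 min at RT. ADP formed was quantified by ADP-Glo: 40 min ATP depletion, then 30 min detection reagent converting ADP to ATP for luciferase luminescence, which rises with kinase activity. Controls: 1% DMSO and 10 μM staurosporine (final).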

[2] = test system: LPS triggered IL-10 secretion in monocyte-derived macrophages (MdM); assay: MdM assay: LPS-triggered IL-10 (ELISA); assay type: cell-based, human; details: LPS 200 ng/mL, supernatant after 2 h, maximal fold change vs LPS only
Procedure, shortened: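 Human CD14+ monocytes differentiated 10 days with 100 ng/mL rhM-CSF into macrophages. Compound preincubated 1 h at 37 °C (0.2% DMSO), then LPS 200 ng/mL. IL-10 in supernatant after 2 h measured by sandwich ELISA.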

T1 sequence (Q9H0K1 whole entry): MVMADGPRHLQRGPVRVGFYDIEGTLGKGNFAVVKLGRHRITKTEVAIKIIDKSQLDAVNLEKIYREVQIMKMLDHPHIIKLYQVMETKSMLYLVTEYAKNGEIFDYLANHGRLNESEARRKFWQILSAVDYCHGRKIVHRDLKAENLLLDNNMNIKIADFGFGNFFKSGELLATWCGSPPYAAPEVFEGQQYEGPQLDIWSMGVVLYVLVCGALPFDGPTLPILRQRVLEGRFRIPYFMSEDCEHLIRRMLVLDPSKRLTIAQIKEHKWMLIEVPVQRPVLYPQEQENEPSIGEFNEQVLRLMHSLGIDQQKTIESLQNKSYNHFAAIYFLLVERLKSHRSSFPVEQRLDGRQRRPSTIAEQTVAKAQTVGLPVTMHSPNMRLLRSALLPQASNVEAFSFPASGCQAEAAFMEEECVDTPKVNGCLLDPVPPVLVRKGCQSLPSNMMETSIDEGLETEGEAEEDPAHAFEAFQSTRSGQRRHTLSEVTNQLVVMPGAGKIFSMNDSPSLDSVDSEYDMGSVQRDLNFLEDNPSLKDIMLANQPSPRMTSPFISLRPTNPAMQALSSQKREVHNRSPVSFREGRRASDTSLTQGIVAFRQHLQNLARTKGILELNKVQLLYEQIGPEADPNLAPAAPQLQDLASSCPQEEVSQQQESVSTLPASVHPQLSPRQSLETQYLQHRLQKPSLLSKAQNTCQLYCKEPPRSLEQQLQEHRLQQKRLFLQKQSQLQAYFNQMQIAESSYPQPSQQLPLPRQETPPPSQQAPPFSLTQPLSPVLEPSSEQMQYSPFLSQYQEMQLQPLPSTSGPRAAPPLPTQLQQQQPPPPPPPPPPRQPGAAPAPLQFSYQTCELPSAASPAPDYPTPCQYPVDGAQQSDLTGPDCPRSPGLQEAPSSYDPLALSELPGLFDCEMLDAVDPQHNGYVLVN

pIC50 [1]: 8.00 to 11.00
Compound: COc1cc(-c2cnc3cc(OC[C@H]4CN(C)CCO4)ccn23)cc2c1C(=O)N(CC(F)(F)F)CC2 [compound 190, 8-methoxy-6-[7-[[(2R)-4-methylmorpholin-2-yl]methoxy]imidazo[1,2-a]pyridin-3-yl]-2-(2,2,2-trifluoroethyl)-3,4-dihydro isoquinolin-1-one]
IL-10 FCmax median [2]: ++ (>1.5-4.5)
